The experiment deals with T1, human LPA1 (Homo sapiens, UniProt Q92633).
T1 construct: expressed in transfected cells; host or cells: CHO-K1
Kind of experiment: In vitro LPA1 calcium flux antagonist assay - Bioduro protocol. Type of experiment: cell-based. The settings on record: CHO-K1 cells overexpressing human LPA1 and G15a, LPA challenge at EC80. Here is the method: In Vitro LPA1 Calcium Flux Antagonist Assay—Bioduro Protocol
CHO-K1 cells overexpressing human LPA1 and G15a were seeded at a total volume of 20 μL (15000 cells/well) into Matrigel pre-coated 384-well plates (corning −3764) and incubated at 37° C. After overnight incubation, the cells were serum starved for 4 h. Assays were performed in dye loading buffer containing 1× Fluo-8 AM (AAT Bioquest, 21080) and 2.5 mM probenecid (Thermo Fisher, 36400) in HBSS/20 mM Hepes. After cell starvation, the medium was replaced with 20 μL of dye loading buffer and incubated at 37° C., for 30 min. Then 5 μL of 5× compound titrated in dye loading buffer was added to the cells and incubated for 30 min followed by LPA challenge at EC80. Calcium mobilization was measured on a FLIPR Tetra (MSD). For LPA EC80 determination, starved cells were incubated with 20 μL of dye loading buffer for 1 h, then 5 μL of 5×LPA titrated in dye loading buffer was added to the cells. Calcium signals induced by LPA was monitors on a FLIPR.
Percentage inhibition is calculated using the following formula: % Inhibition=100%×(1−(mean RFU of test sample−mean RFU of DMSO)/(mean RFU of LPA control−mean RFU of DMSO)).
Table B3 and Table B4 show the biological activity of compounds in in vitro LPA1 Calcium flux antagonist assay—Bioduro protocol.

[1] abbreviates: calcium mobilization on FLIPR Tetra, read-out: IC50.
[2] abbreviates: Table B3, read-out: Activity (IC50 class).

Where two headings read alike, the source gives them in different places. Some results are limits rather than exact numbers.

T1 sequence (Q92633 whole entry): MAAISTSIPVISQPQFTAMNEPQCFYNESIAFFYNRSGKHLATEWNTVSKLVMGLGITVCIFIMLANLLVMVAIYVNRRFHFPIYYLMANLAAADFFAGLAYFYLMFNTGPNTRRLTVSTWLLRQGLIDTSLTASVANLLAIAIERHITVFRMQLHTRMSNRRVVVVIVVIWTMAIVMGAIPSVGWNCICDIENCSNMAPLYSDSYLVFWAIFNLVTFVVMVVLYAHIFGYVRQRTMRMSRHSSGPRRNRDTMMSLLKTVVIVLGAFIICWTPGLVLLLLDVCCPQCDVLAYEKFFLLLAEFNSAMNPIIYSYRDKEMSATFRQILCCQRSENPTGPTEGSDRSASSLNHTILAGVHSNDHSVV

As to `COC(=O)N1CC(Nc2ccc(-c3cc(OC)c(C)c(OC)c3)c(COC3CCCC3)c2)(C(=O)O)C1` [Compound 144], the IC50 is, setting by setting: under setting [1], 59.5 nM; under setting [2], less than 100 nM.

Take `COC(=O)N1CCC(Nc2cc(C)c(-c3cc(OC)ccn3)c(COC3CCCC3)c2)(C(=O)O)CC1` [Compound 171]: the 50% inhibitory concentration (IC50) under setting [1] was more than 10000 nM and the half-inhibitory concentration (IC50) under setting [2] is more than 1000 nM.

For `CCOc1cc(OC)cc(-c2ccc(NC3(C(=O)O)CC3)cc2COC2CC2)c1F` [Compound 337], the 50% inhibitory concentration (IC50) was 315 nM under setting [1] and 100 to 1000 nM under setting [2].

As for `CCOc1cccc(-c2ccc(OC3(C(=O)O)CCOCC3)cc2COC2CC2)c1C(F)F` [Compound 371], the IC50 by setting is: under setting [1], 22.3 nM; under setting [2], less than 100 nM.

As for `COc1cc(-c2ccc(NCCC(=O)O)cc2OCC2(C)Oc3ccccc3O2)cc(OC)c1C` [Compound 115], the concentration for half-maximal inhibition (IC50) under setting [1] was 6820 nM and the IC50 under setting [2] was more than 1000 nM.

For `COc1cc(OC2CC2)c(F)c(-c2ccc(NC3(C(=O)O)CCC(F)(F)CC3)cc2COC2CC2)c1` [Compound 346], the IC50 runs as follows: under setting [1], 7.24 nM; under setting [2], less than 100 nM.

With `COc1cccc(-c2ccc(NC3(C(=O)O)CCOCC3)cc2COC2CCCC2)c1C` [Compound 172], the 50% inhibitory concentration (IC50) under setting [1] amounted to 82.1 nM and the IC50 under setting [2] is less than 100 nM.

On to `COc1cc(-c2ccc(NC3(C(=O)O)CCOCC3)cc2COC2COc3ccccc32)c(F)c(OC)c1C` (single isomer, unassigned) [Compound 224], for which the IC50 by setting is: under setting [1], 158 nM; under setting [2], 100 to 1000 nM.

Consider `COc1cc(-c2ccc(NC3(C(=O)O)CC(F)(F)C3)cc2COC2Cc3ccccc3C2)cc(OC)c1C` [Compound 120], for which the IC50 runs as follows: under setting [1], 57 nM; under setting [2], less than 100 nM.

`COc1cc(-c2ccc(OC3(C(=O)O)CCOCC3)cc2COC2CCCC2)c(C)c(OC)c1C` [Compound 191]: the IC50 is 34.3 nM under setting [1] and less than 100 nM under setting [2].

Consider `COc1cc(OC2CC2)cc(-c2ccc(NC3(C(=O)O)CCOCC3)cc2COC2CCCC2)c1` [Compound 331], for which the IC50 was 9.37 nM under setting [1] and less than 100 nM under setting [2].

Consider `COc1cc(-c2ccc(OC3(C(=O)O)CCOCC3)cc2COC2CCCC2)c(Cl)c(OC)n1` [Compound 230], for which the IC50 was 139 nM under setting [1] and 100 to 1000 nM under setting [2].

As to `COc1cc(-c2ccc(NC3(C(=O)O)CCOCC3)cc2COCC(C)C)c(C)c(OC)c1C` [Compound 397], the IC50 is 73 nM under setting [1] and less than 100 nM under setting [2].

As for `CCOc1cncc(-c2ccc(NC3(C(=O)O)CCOCC3)cc2COCCC(C)C)c1C(F)F` [Compound 413, 4-({4-[4-(difluoromethyl)-5-ethoxypyridin-3-yl]-3-[(3-methylbutoxy)methyl]phenyl}amino) oxane-4-carboxylic acid], the IC50 was 5.79 nM under setting [1] and less than 100 nM under setting [2].

Regarding `COc1cc(-c2c(CC#N)cc(NC3(C(=O)O)CCOCC3)cc2COC2CCCC2)cc(OC)c1C` [Compound 233], the half-maximal inhibitory concentration (IC50) is 914 nM under setting [1] and 100 to 1000 nM under setting [2].

For the molecule `COc1cc(-c2ccc(NC3(C(=O)O)CCC(C)(OC)CC3)cc2COC2CCCC2)c(F)c(OC)c1C` (single isomer, unassigned) [Compound 238], the IC50 is, setting by setting: under setting [1], 268 nM; under setting [2], 100 to 1000 nM.

Take `COc1cc(-c2ccc(NC3(C(=O)O)CCOCC3)cc2COC2CCCC2)cc(OC2CC2)c1C` [Compound 340]: the IC50 is, setting by setting: under setting [1], 26.1 nM; under setting [2], less than 100 nM.

Regarding `COc1cc(-c2ccc(NC3(C(=O)O)CCC3)cc2COC2CC2)c(F)c(OC)c1C` [Compound 362], the IC50 was 356 nM under setting [1] and 100 to 1000 nM under setting [2].

For the molecule `COc1cc(OC)cc(-c2ccc(NC3(C(=O)O)CCOCC3)cc2COC2COc3ccccc32)c1` (single isomer, unassigned) [Compound 159], the IC50 reads like this: under setting [1], more than 10000 nM; under setting [2], more than 1000 nM.

As to `COc1c(C(C)OC)ccc(-c2ccc(NC3(C(=O)O)CCOCC3)cc2COC2CCCC2)c1C` (single isomer, unassigned) [Compound 242], the IC50 is, setting by setting: under setting [1], 266 nM; under setting [2], 100 to 1000 nM.

As to `CCOC1CC(Nc2ccc(-c3cc(OC)c(C)c(OC)c3C)c(COC3CCCC3)c2)(C(=O)O)C1` (stereo not shown) [Compound 213], the half-inhibitory concentration (IC50) runs as follows: under setting [1], 58.7 nM; under setting [2], less than 100 nM.

As for `COc1cc(-c2ccc(NC3(C(=O)O)CCOCC3)cc2COC2CCCC2)c2c(c1C)OCC2` [Compound 193, 4-((3-((cyclopentyloxy)methyl)-4-(6-methoxy-7-methyl-2,3-dihydrobenzofuran-4-yl)phenyl)amino)tetrahydro-2H-pyran-4-carboxylic acid], the IC50 reads like this: under setting [1], 31.9 nM; under setting [2], less than 100 nM.

`COc1cc(-c2ccc(NC3(C(=O)O)CCC(O)CC3)cc2COC2CCCC2)cc(OC)c1C` (stereo not shown) [Compound 206]: the IC50 reads like this: under setting [1], 476 nM; under setting [2], 100 to 1000 nM.

For the molecule `CCOc1cc(-c2ccc(OC3(C(=O)O)CCOCC3)cc2COC2CCCC2)cc(OC)c1C` [Compound 379], the IC50 was 67.3 nM under setting [1] and less than 100 nM under setting [2].

Turning to `COc1cc(-c2ccc(NC3(C(=O)O)CC(O)C3)cc2COC2Cc3ccccc3C2)cc(OC)c1C` (stereo not shown) [Compound 130], the IC50 is 191 nM under setting [1] and 100 to 1000 nM under setting [2].

Consider `COc1cc(-c2ccc(NC3(C(=O)O)CCC(OC)CC3)cc2COC2CCCC2)cc(OC)c1C` (stereo not shown) [Compound 205], for which the IC50 under setting [1] came to 1260 nM and the 50% inhibitory concentration (IC50) under setting [2] was more than 1000 nM.

For `COc1cc(-c2ccc(NC3(C(=O)O)CCCC3)cc2COC2Cc3ccccc3C2)cc(OC)c1C` [Compound 112], the IC50 was 188 nM under setting [1] and 100 to 1000 nM under setting [2].

`COc1cc(-c2c(COC3CCCC3)cc(NC3(C(=O)O)CCOCC3)cc2OC)cc(OC)c1C` [Compound 175]: the IC50 under setting [1] was 175 nM and the half-inhibitory concentration (IC50) under setting [2] is 100 to 1000 nM.

On to `CCc1c(-c2ccc(OC3(C(=O)O)CCOCC3)cc2COC2CCCC2)cc(OC)c(C)c1OC` [Compound 194], for which the IC50 is, setting by setting: under setting [1], 79.8 nM; under setting [2], less than 100 nM.

Turning to `CCCCOCc1cc(NC2(C(=O)O)CCOCC2)ccc1-c1cc(OC)cc(OCC)c1F` [Compound 390], the IC50 is, setting by setting: under setting [1], 0.658 nM; under setting [2], less than 100 nM.

Regarding `COc1cc(-c2ccc(NC3(C(=O)O)CCC(F)(F)CC3)cc2COC2CC2)c(F)c(OC)c1C` [Compound 347], the half-inhibitory concentration (IC50) was 23.5 nM under setting [1] and less than 100 nM under setting [2].

Turning to `COc1cc(-c2ccc(NC3(C(=O)O)CCOCC3)cc2COC2CC3CC3C2)cc(OC)c1C` (stereo not shown) [Compound 182, 4-((2-((bicyclo[3.1.0]hexan-3-yloxy)methyl)-3′,5′-dimethoxy-4′-methyl-[1,1′-biphenyl]-4-yl)amino)tetrahydro-2H-pyran-4-carboxylic acid], the IC50 under setting [1] turned out to be 9.7 nM and the IC50 under setting [2] was less than 100 nM.

Turning to `COc1cc(OC)cc(-c2ccc(NC3(C(=O)O)CCOCC3)cc2CCN2CCCC2=O)c1` [Compound 202], the concentration for half-maximal inhibition (IC50) is more than 10000 nM under setting [1] and more than 1000 nM under setting [2].

Consider `CCOc1cc(OC)c(F)c(-c2ccc(NC3(C(=O)O)CCOCC3)cc2COC2CCCC2)c1` [Compound 297], for which the IC50 is 137 nM under setting [1] and 100 to 1000 nM under setting [2].

Turning to `CCOc1cccc(-c2ccc(NC3(C(=O)O)CCOCC3)cc2COC2CC2)c1C(F)F` [Compound 279, 4-((2-(cyclopropoxymethyl)-2′-(difluoromethyl)-3′-ethoxy-[1,1′-biphenyl]-4-yl)amino)tetrahydro-2H-pyran-4-carboxylic acid], the IC50 reads like this: under setting [1], 4.19 nM; under setting [2], less than 100 nM.

As for `COc1cc(-c2ccc(NC3(C(=O)O)CCOCC3)cc2COC2CCCC2)c(Cl)c(OC)n1` [Compound 207, 4-((4-(3-chloro-2,6-dimethoxypyridin-4-yl)-3-((cyclopentyloxy)methyl)phenyl)amino)tetrahydro-2H-pyran-4-carboxylic acid], the IC50 under setting [1] turned out to be 30.4 nM and the IC50 under setting [2] was less than 100 nM.

Turning to `COc1cc(-c2ccc(NC3(C(=O)O)CN(C(C)=O)C3)cc2COC2Cc3ccccc3C2)cc(OC)c1C` [Compound 128], the half-maximal inhibitory concentration (IC50) by setting is: under setting [1], 31.4 nM; under setting [2], less than 100 nM.

As to `COc1cc(-c2c(C)cc(NC3(C(=O)O)CCOCC3)cc2CCC2CCOC2)cc(OC)c1C` (stereo not shown) [Compound 309], the half-inhibitory concentration (IC50) under setting [1] was 37.7 nM and the IC50 under setting [2] is less than 100 nM.

Take `COc1cc(-c2c(C)cc(NC3(C(=O)O)CCOCC3)cc2COC2CCCC2)nc(OC)c1C` [Compound 253, 4-((3-((cyclopentyloxy)methyl)-4-(4,6-dimethoxy-5-methylpyridin-2-yl)-5-methylphenyl)amino)tetrahydro-2H-pyran-4-carboxylic acid]: the IC50 under setting [1] stood at 54.3 nM and the half-inhibitory concentration (IC50) under setting [2] is less than 100 nM.

Regarding `COc1cc(OC)c(F)c(-c2ccc(OC3(C(=O)O)CCOCC3)cc2COC2CCCC2)c1` [Compound 222], the IC50 under setting [1] is 167 nM and the IC50 under setting [2] was 100 to 1000 nM.

In the case of `O=C(O)C1(Nc2ccc(-c3cccc(OC4CC4)c3F)c(COC3CCCC3)c2)CCOCC1` [Compound 265, 4-((2-((cyclopentyloxy)methyl)-3′-cyclopropoxy-2′-fluoro-[1,1′-biphenyl]-4-yl)amino)tetrahydro-2H-pyran-4-carboxylic acid], the half-maximal inhibitory concentration (IC50) under setting [1] came out at 12 nM and the IC50 under setting [2] was less than 100 nM.

These data come from patent publication US11884627B2, “Compounds and compositions for treating conditions associated with LPA receptor activity” (Lhotse Bio, Inc., priority 2022, dated 2024).
